Source: paper PMC4578888, “The Validation of Nematode-Specific Acetylcholine-Gated Chloride Channels as Potential Anthelmintic Drug Targets” (PLoS ONE, 2015)

Molecular target: T1, AVR-15 (glutamate-gated chloride channel subunit) (Caenorhabditis elegans, UniProt O17548)
T1 construct: homomeric AVR-15, untagged and with a fluorescent protein tag in the intracellular loop, expressed in Xenopus laevis oocytes
T1 sequence (O17548 21-478): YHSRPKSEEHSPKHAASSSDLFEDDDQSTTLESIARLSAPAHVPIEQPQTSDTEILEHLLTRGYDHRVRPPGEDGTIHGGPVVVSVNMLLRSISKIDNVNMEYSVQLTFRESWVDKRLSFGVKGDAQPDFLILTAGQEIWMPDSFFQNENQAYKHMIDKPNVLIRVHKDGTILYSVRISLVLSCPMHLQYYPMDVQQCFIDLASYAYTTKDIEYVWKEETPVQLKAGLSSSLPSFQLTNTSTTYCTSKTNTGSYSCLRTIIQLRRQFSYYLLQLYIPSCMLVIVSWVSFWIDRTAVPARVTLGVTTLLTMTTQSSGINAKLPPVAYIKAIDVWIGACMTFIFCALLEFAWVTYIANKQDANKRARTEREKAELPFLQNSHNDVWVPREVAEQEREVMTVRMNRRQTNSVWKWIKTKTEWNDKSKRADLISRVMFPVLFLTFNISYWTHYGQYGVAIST
Assay: two-electrode voltage clamp in Xenopus oocytes, dose–response curve
Type: cell-based

Compound: N[C@@H](CCC(=O)O)C(=O)O [glutamate]
- two-electrode voltage clamp in Xenopus oocytes, dose-response curve: Dose–response curve with the normalized maximal response on the y-axis plotted against the glutamate concentration
